Experimental data taken from patent US20260258048A1, “LACTAM-CONTAINING IMIDAZOPYRIDAZINE IL-17 INHIBITOR COMPOUNDS” (Janssen Pharmaceutica NV, priority 2023, published 2026).

Tests used:
[1] = biological target: IL-17A(FLAG-tagged): IL-17RA(His-tagged) (Homo sapiens, UniProt Q16552, K93Q); experiment: IL-17A(FLAG-tagged): IL-17RA(His-tagged) binding disruption Eu-HTRF assay; details: for potency increase in the HTRF IC50 when compared to its C-3 epimer: (S)-configuration on C-3 (cis) vs (R)-epimer (trans): Example 51 vs 52, Example 59 vs 60
In short: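 Compound (22-point, 2-fold series) was pre-incubated 1 h at rt with FLAG-IL-17A, added as a 2× solution (1 μM). A 2× mix of C-terminal 10×His IL-17RA, Eu-anti-FLAG donor and D2-anti-His acceptor in PBS/0.01% Triton X-100/200 mM KF was then added for 2 h at rt. The 665/615 nm ratio was fitted to one-site competition for IC50.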

[2] = system: IL-17A-induced G-CSF production in human normal keratinocyte (NHK); experiment: NHK assay: IL-17A-induced G-CSF production in normal human keratinocytes; type: cell-based; details: IL-17A 5 ng/mL, 24 h
In short: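 Adult keratinocytes at 3000-4000 cells/well; recombinant human IL-17A pre-incubated 1 h at rt with titrated compound, then added to cells (final 5 ng/mL IL-17A, 0.2% DMSO, 5% FBS) for 24 h at 37 °C. Supernatant G-CSF quantified by HTRF against a standard curve to give IC50; viability checked by CellTiter-Glo versus DMSO.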

[3] = class of the average IC50 where tested more than once
[4] = Homo sapiens, Keratinocyte, class of the average IC50 where tested more than once
[5] = Homo sapiens, Keratinocyte, value in brackets, Table 4

Chain of UniProt Q16552 (Q16552 with tags, fused parts or gaps K93Q): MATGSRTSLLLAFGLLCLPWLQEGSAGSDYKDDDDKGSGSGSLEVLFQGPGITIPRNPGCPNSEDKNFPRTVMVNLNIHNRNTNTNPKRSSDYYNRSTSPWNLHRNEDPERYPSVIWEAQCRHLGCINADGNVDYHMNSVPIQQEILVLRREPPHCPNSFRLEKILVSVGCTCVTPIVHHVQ

IC50 [1, 3]	potency increase in the HTRF IC50 when compared to its C-3 epimer [1]	IC50 ([1]; value in brackets, Table 4)	Compound	IC50 [2, 3]	IC50 [2, 4]	IC50 [2, 5]
400 to 4000 nM	–	–	CC1(Cc2cnn3cc([C@@H](NC(=O)c4nonc4C4CC4)C4CCC(F)(F)CC4)nc3c2)CCNC1=O (single isomer, unassigned) [Example 54, 4-Cyclopropyl-N—((S)-(4,4-difluorocyclohexyl)(7-(((S*)-3-methyl-2-oxopyrrolidin-3-yl)methyl)imidazo[1,2-b]pyridazin-2-yl)methyl)-1,2,5-oxadiazole-3-carboxamide]	> 4000 nM	–	–
400 to 4000 nM	–	–	C[C@@]1(C(F)(F)F)CC(Cc2cnn3cc([C@@H](NC(=O)c4nonc4C4CC4)C4CCC(F)(F)CC4)nc3c2)C(=O)N1 (single isomer, unassigned) [Example 56, 4-Cyclopropyl-N—((S)-(4,4-difluorocyclohexyl)(7-(((3R*,5S)-5-methyl-2-oxo-5-(trifluoromethyl)pyrrolidin-3-yl)methyl)imidazo[1,2-b]pyridazin-2-yl)methyl)-1,2,5-oxadiazole-3-carboxamide]	400 to 4000 nM	–	–
< 400 nM	–	–	CC(C)(CC[C@H](NC(=O)c1nonc1C1CC1)c1cn2ncc(CC3C[C@@](C)(C(F)(F)F)NC3=O)cc2n1)C(F)(F)F (single isomer, unassigned) [Example 58, 4-Cyclopropyl-N—((S)-5,5,5-trifluoro-4,4-dimethyl-1-(7-(((3R*,5S)-5-methyl-2-oxo-5-(trifluoromethyl)pyrrolidin-3-yl)methyl)imidazo[1,2-b]pyridazin-2-yl)pentyl)-1,2,5-oxadiazole-3-carboxamide]	400 to 4000 nM	–	–
> 4000 nM	–	–	O=C(N[C@H](c1cn2ncc([C@@H](O)[C@@H]3C[C@H](C(F)(F)F)NC3=O)cc2n1)C1CCC(F)(F)CC1)c1nonc1C1CC1 (single isomer, unassigned) [Example 76]	–	400 to 4000 nM	–
400 to 4000 nM	–	–	C[C@@H](c1cnn2cc([C@@H](NC(=O)c3nonc3C3CC3)C3CCC(F)(F)CC3)nc2c1)[C@@H]1C[C@@H](C(F)(F)F)NC1=O (single isomer, unassigned) [Example 80, 4-Cyclopropyl-N—((S)-(4,4-difluorocyclohexyl(7-((R*)-1-((3S*,5S)-2-oxo-5-(trifluoromethyl)pyrrolidin-3-yl)ethyl)imidazo[1,2-b]pyridazin-2-yl)methyl)-1,2,5-oxadiazole-3-carboxamide]	–	400 to 4000 nM	–
< 400 nM	–	–	C[C@]1(Cc2cnn3cc([C@@H](NC(=O)c4nonc4C4CC4)C4CCC(F)(F)CC4)nc3c2)C[C@@H](C(F)(F)F)NC1=O (single isomer, unassigned) [Example 97]	–	< 400 nM	–
< 400 nM	–	–	Cc1nonc1C(=O)N[C@H](c1cn2ncc(CC3(CC#N)C[C@@H](C(F)(F)F)NC3=O)cc2n1)C1CCC(F)(F)CC1 (single isomer, unassigned) [Example 103, N—((S)-(7-(((3S*,5S)-3-(Cyanomethyl)-2-oxo-5-(trifluoromethyl)pyrrolidin-3-yl)methyl)imidazo[1,2-b]pyridazin-2-yl)(4,4-difluorocyclohexyl)methyl)-4-methyl-1,2,5-oxadiazole-3-carboxamide]	–	< 400 nM	–
< 400 nM	–	–	N#CCC1(Cc2cnn3cc([C@@H](NC(=O)c4nonc4C4CC4)C4CCC(F)(F)CC4)nc3c2)C[C@@H](C(F)(F)F)NC1=O (single isomer, unassigned) [Example 104, N—((S)-(7-(((3S*,5S)-3-(Cyanomethyl)-2-oxo-5-(trifluoromethyl)pyrrolidin-3-yl)methyl)imidazo[1,2-b]pyridazin-2-yl)(4,4-difluorocyclohexyl)methyl)-4-cyclopropyl-1,2,5-oxadiazole-3-carboxamide]	–	< 400 nM	–
< 400 nM	–	–	Cc1nonc1C(=O)N[C@H](c1cn2ncc(CC3(CN(C)C)C[C@@H](C(F)(F)F)NC3=O)cc2n1)C1CCC(F)(F)CC1 (single isomer, unassigned) [Example 105, N—((S)-(4,4-Difluorocyclohexyl)(7-(((3S*,5S)-3-((dimethylamino)methyl)-2-oxo-5-(trifluoromethyl)pyrrolidin-3-yl)methyl)imidazo[1,2-b]pyridazin-2-yl)methyl)-4-methyl-1,2,5-oxadiazole-3-carboxamide]	–	< 400 nM	–
< 400 nM	–	–	O=C(N[C@H](c1cn2ncc(C[C@@]3(O)C[C@@H](C(F)(F)F)NC3=O)cc2n1)C1CCC(F)(F)CC1)c1nonc1C1CC1 [Example 36]	–	< 400 nM	–
< 400 nM	more than 100 fold	150 nM	CC(C)n1nccc1C(=O)N[C@H](c1cn2ncc(C[C@H]3C[C@@H](C(F)(F)F)NC3=O)cc2n1)C1CCC(F)(F)CC1 [Example 51, N—((S)-(4,4-Difluorocyclohexyl)(7-(((3S,5S)-2-oxo-5-(trifluoromethyl)pyrrolidin-3-yl)methyl)imidazo[1,2-b]pyridazin-2-yl)methyl)-1-isopropyl-1H-pyrazole-5-carboxamide]	–	< 400 nM	50 nM
400 to 4000 nM	–	2450 nM	CC(C)n1nccc1C(=O)N[C@H](c1cn2ncc(C[C@@H]3C[C@@H](C(F)(F)F)NC3=O)cc2n1)C1CCC(F)(F)CC1 [Example 52, N—((S)-(4,4-Difluorocyclohexyl)(7-(((3R,5S)-2-oxo-5-(trifluoromethyl)pyrrolidin-3-yl)methyl)imidazo[1,2-b]pyridazin-2-yl)methyl)-1-isopropyl-1H-pyrazole-5-carboxamide]	–	400 to 4000 nM	2830 nM
< 400 nM	more than 80 fold	14 nM	O=C(N[C@H](c1cn2ncc(C[C@H]3C[C@@H](C(F)(F)F)NC3=O)cc2n1)C1CCC(F)(F)CC1)c1nonc1C1CC1 [Example 59, 4-Cyclopropyl-N—[(S)-(4,4-difluorocyclohexyl)-[7-[[(3S,5S)-2-oxo-5-(trifluoromethyl)pyrrolidin-3-yl]methyl]imidazo[1,2-b]pyridazin-2-yl]methyl]-1,2,5-oxadiazole-3-carboxamide]	–	< 400 nM	7.8 nM
400 to 4000 nM	–	1140 nM	O=C(N[C@H](c1cn2ncc(C[C@@H]3C[C@@H](C(F)(F)F)NC3=O)cc2n1)C1CCC(F)(F)CC1)c1nonc1C1CC1 [Example 60, 4-Cyclopropyl-N—[(S)-(4,4-difluorocyclohexyl)-[7-[[(3R,5S)-2-oxo-5-(trifluoromethyl)pyrrolidin-3-yl]methyl]imidazo[1,2-b]pyridazin-2-yl]methyl]-1,2,5-oxadiazole-3-carboxamide]	–	> 4000 nM	> 4000 nM
400 to 4000 nM	–	–	O=C(N[C@H](c1cn2ncc(C(O)C3CC(C(F)(F)F)NC3=O)cc2n1)C1CCC(F)(F)CC1)c1nonc1C1CC1 (stereo partly drawn) [Example 61, 4-Cyclopropyl-N—[(S)-(4,4-difluorocyclohexyl)-[7-[hydroxy-[2-oxo-5-(trifluoromethyl)pyrrolidin-3-yl]methyl]imidazo[1,2-b]pyridazin-2-yl]methyl]-1,2,5-oxadiazole-3-carboxamide]	–	< 400 nM	–
400 to 4000 nM	–	–	O=C(N[C@H](c1cn2ncc(CC3CC4(CC4)NC3=O)cc2n1)C1CCC(F)(F)CC1)c1nonc1C1CC1 (stereo partly drawn) [Example 62, 4-Cyclopropyl-N-((1S)-(4,4-difluorocyclohexyl)(7-((5-oxo-4-azaspiro[2.4]heptan-6-yl)methyl)imidazo[1,2-b]pyridazin-2-yl)methyl)-1,2,5-oxadiazole-3-carboxamide]	–	> 4000 nM	–
< 400 nM	–	–	O=C(N[C@H](c1cn2ncc([C@@H](O)[C@H]3C[C@@H](C(F)(F)F)NC3=O)cc2n1)C1CCC(F)(F)CC1)c1nonc1C1CC1 [Example 74]	–	< 400 nM	–
> 4000 nM	–	–	O=C(N[C@H](c1cn2ncc(CC3CC4(COC4)NC3=O)cc2n1)C1CCC(F)(F)CC1)c1nonc1C1CC1 (stereo partly drawn) [Example 98, 4-Cyclopropyl-N-((1S)-(4,4-difluorocyclohexyl)(7-((6-oxo-2-oxa-5-azaspiro[3.4]octan-7-yl)methyl)imidazo[1,2-b]pyridazin-2-yl)methyl)-1,2,5-oxadiazole-3-carboxamide]	–	> 4000 nM	–
